Read-outs that look alike come from different tables or passages of the source.
Experiments:
[1] = tested on: HepG2 cells; experiment: Glu/Gal assay: cellular ATP (CellTiter-Glo) after 24 h in glucose or galactose media; settings: for AC50 / minimal effective concentration: Homo sapiens, HepG2, 24 h
[2] = tested on: ADP-stimulated respiration; settings: isolated rat liver mitochondria; cited from earlier work
[3] = literature values, plasma or serum of adult humans when possible; ref 68-88 (per drug, Table 2 Cmax Reference); cited from earlier work
[4] = tested on: HepG2 cells; experiment: Acute extracellular flux (AEF) assay in intact HepG2 cells (Seahorse XFe96); assay type: cell-based, human
[5] = tested on: rPFO permeabilized HepG2 cells; experiment: Mitochondrial respiratory complexes in rPFO permeabilized HepG2 cells (Seahorse XF); settings: for AC50: Homo sapiens, HepG2, read-out: Pyruvate Respiration AC50
[6] = tested on: rat liver mitochondria (CII-linked respiration); experiment: High-resolution respirometry, MMP and ROS in isolated rat liver mitochondria (Oroboros O2k); assay type: biochemical; settings: for % MMP / % O2 consumption: basal succinate-driven respiration, normalized to control; for Mode of action on respiration in isolated RLM (in words): CII-linked respiration
Procedure: Mitochondria were isolated from adult Wistar Rat liver. […] The liver was homogenized with 10 passes in a loose-fitting homogenizer, followed by 10 passes in a tight-fitting homogenizer, and filtered through muslin. The tissue homogenate was then centrifuged at 1000× g for 10 min at 4 °C and the supernatants were further centrifuged at 10,000× g for 10 min. The centrifugation steps were repeated, preserving the pellet. […] Protein concentration was determined using the Bradford method with bovine serum albumin as the standard. The Oroboros® Oxygraph-2K (Oroboros Instruments, Innsbruck, Austria) was used to simultaneously analyze high-resolution respirometry and mitochondrial membrane potential (MMP). […] At the beginning of each experiment, the O2k chambers were filled with 2 mL of reaction buffer (200 mM sucrose, 25 mM KCl, 5 mM MgCl2, 4 mM KH2PO4, 5 mM MOPS, pH 7.4) and equilibrated with air at 37 °C. During the experiments, the incubation chambers were kept at constant temperature by Peltier control (±0.001 °C) and the medium was stirred using white PVDF-coated stirrers (750 rpm). […] This was followed by serial additions of the drugs to assess their dose-dependent effect on the MMP and mitochondrial respiration. Injection of RLM results in an uptake of safranin and a corresponding decline in the fluorescence signal.

[7] = tested on: respiratory CI; parameters: method as in PMID 9309697; settings: human brain cortex; read-out: CI inhibition IC50; cited from earlier work
[8] = tested on: CI-linked respiration; settings: read-out: CI-linked respiration IC50, cited from earlier work
[9] = tested on: complex I; parameters: method as in PMID 31104106; settings: 50 µM, 30 min incubation; cited from earlier work
[10] = tested on: CI-linked respiration; settings: read-out: concentration inhibiting CI-linked respiration by 50%; rat liver isolated mitochondria; cited from earlier work
[11] = tested on: HepG2 cells
[12] = tested on: rPFO permeabilized HepG2 cells
[13] = tested on: liver mitochondria; parameters: method as in PMID 1347214; settings: rats fed 1% (w/w) for 75 days; cited from earlier work
[14] = tested on: CI; parameters: method as in PMID 18344530; settings: isolated mitochondria; read-out: CI inhibition IC50; cited from earlier work
[15] = tested on: HepG2 cells; parameters: method as in PMID 18344530; settings: 200 µM, not in Glu media; cited from earlier work
[16] = tested on: CII-linked respiration; settings: read-out: CII-linked respiration IC50; isolated mitochondria, partial inhibition; cited from earlier work
[17] = Homo sapiens, HepG2, minimum effective concentration crossing vehicle control threshold, read-out: MEC Reserve Capacity
[18] = Homo sapiens, HepG2, concentration at which 50% maximum effect is observed, read-out: AC50 Reserve Capacity
[19] = Homo sapiens, HepG2, minimum effective concentration crossing vehicle control threshold, read-out: MEC ATP Production
[20] = Homo sapiens, HepG2, minimum effective concentration crossing vehicle control threshold, read-out: MEC ECAR
[21] = Homo sapiens, HepG2, minimum effective concentration crossing vehicle control threshold, read-out: MEC OCR
[22] = Homo sapiens, HepG2, minimum effective concentration crossing vehicle control threshold, read-out: MEC Proton Leak
[23] = Homo sapiens, HepG2, concentration at which 50% maximum effect is observed, read-out: AC50 ATP Production
[24] = Homo sapiens, HepG2, concentration at which 50% maximum effect is observed, read-out: AC50 ECAR
[25] = Homo sapiens, HepG2, concentration at which 50% maximum effect is observed, read-out: AC50 OCR
[26] = Homo sapiens, HepG2, concentration at which 50% maximum effect is observed, read-out: AC50 Proton Leak

Structure (SMILES)	AC50 ([1]; read-out: Gal AC50)	minimal effective concentration ([1]; read-out: Gal MEC)	AC50 ([1]; read-out: Glu AC50)	minimal effective concentration ([1]; read-out: Glu MEC)	Cmax [3]	minimal effective concentration [4, 17]	AC50 [4, 18]	minimal effective concentration [4, 19]	minimal effective concentration [4, 20]	minimal effective concentration [4, 21]	minimal effective concentration [4, 22]	AC50 [4, 23]	AC50 [4, 24]	AC50 [4, 25]	AC50 [4, 26]	other results
CN1CCN(CCCN2c3ccccc3Sc3ccc(C(F)(F)F)cc32)CC1 [Trifluoperazine]	1.13 µM	0.8 µM	1 µM	0.75 µM	5 nM	< 0.002 µM	0.157 µM	–	–	–	–	–	–	–	–	Effect on cell viability / ATP in Glu and Gal media (in words) ([1]; 24 h incubation, top concentration): complete loss of cell viability in both media; inhibition of ADP-stimulated respiration (concentration) [2]: 66 µM; minimal effective concentration ([4]; minimum effective concentration crossing vehicle control threshold, read-out: MEC Reserve Capacity): <0.002 µM
CN(C)CCCN1c2ccccc2Sc2ccc(Cl)cc21 [Chlorpromazine]	16.9 µM	10.5 µM	15.9 µM	10.7 µM	900 nM	78.4 µM	> 100 µM	94.2 µM	15.6 µM	73.4 µM	31 µM	> 100 µM	> 100 µM	> 100 µM	> 100 µM	Most sensitive mechanism / response in permeabilized HepG2 assay (OCR) ([5]; in words): did not show a significant response; % MMP ([6]; 20 μM): 88%; % O2 consumption ([6]; 20 μM): 111%; % MMP ([6]; 50 μM): 79%; % O2 consumption ([6]; 50 μM): 125%; % MMP ([6]; 100 μM): 72%; % O2 consumption ([6]; 100 μM): 131%; Mode of action on respiration in isolated RLM (in words) [6]: uncoupler of OXPHOS; Mode of action on respiration in isolated RLM (in words) ([6]; listed as chlorpromazine): uncoupler in basal respiration and an ETC inhibitor under uncoupled respiration; IC50 ([6]; CII-linked, succinate + rotenone, stimulated with 0.25 µM CCCP, 50–400 µM, read-out: IC50 uncoupled respiration): 135 µM; ROS production ([6]; uncoupled respiration, increasing concentrations): reduction in the production of ROS; IC50 [7]: 400 µM; IC50 ([8]; pig brain mitochondria): 116 µM
CN1CCN(C2=Nc3cc(Cl)ccc3Nc3ccccc32)CC1 [Clozapine]	60.8 µM	44.4 µM	56.7 µM	34.1 µM	220 nM	–	–	37.3 µM	20.2 µM	–	–	> 100 µM	> 100 µM	–	–	decrease of complex I activity [9]: 85%
CNCCC(Oc1ccc(C(F)(F)F)cc1)c1ccccc1 (stereo not drawn) [Fluoxetine]	17.5 µM	12.1 µM	13.3 µM	6.89 µM	40 nM	25.2 µM	70.4 µM	68.6 µM	67.3 µM	8.12 µM	–	–	–	–	–	IC50 [10]: 250 µM
O=C1Nc2ccc(Cl)cc2C(c2ccccc2Cl)=NC1O (stereo not drawn) [Lorazepam]	> 100 µM	–	> 100 µM	–	100 nM	–	–	–	–	–	–	–	–	–	–	Effect on cell viability / ATP in Glu and Gal media (in words) [11]: did not exhibit toxicity neither in glucose nor in galactose-grown cells; AC50 ([4]; Homo sapiens, HepG2, read-out: AC50 ATP Production): > 100 µM; AC50 ([4]; Homo sapiens, HepG2, read-out: AC50 ECAR): > 100 µM; AC50 ([4]; Homo sapiens, HepG2, read-out: AC50 OCR): > 100 µM; AC50 ([4]; Homo sapiens, HepG2, read-out: AC50 Proton Leak): 15 µM; AC50 ([4]; Homo sapiens, HepG2, read-out: AC50 Reserve Capacity): > 100 µM; minimal effective concentration ([4]; Homo sapiens, HepG2, read-out: MEC ATP Production): 3.2 µM; minimal effective concentration ([4]; Homo sapiens, HepG2, read-out: MEC OCR): 63.7 µM; minimal effective concentration ([4]; Homo sapiens, HepG2, read-out: MEC Proton Leak): 3.14 µM; Most sensitive mechanism / response in permeabilized HepG2 assay (OCR) [12]: did not significantly inhibit any of the ETC complexes
CCCC(CCC)C(=O)O [Valproic acid]	> 10000 µM	–	> 10000 µM	–	367000 nM	3090 µM	> 10000 µM	5200 µM	2600 µM	520 µM	1140 µM	> 10000 µM	> 10000 µM	> 10000 µM	9180 µM	AC50 [5]: > 10000 µM; decrease in the respiration rate with substrates feeding CI and CII [13]: 30%
O=C1CC2(CCCC2)CC(=O)N1CCCCN1CCN(c2ncccn2)CC1 [Buspirone]	99 µM	35.7 µM	> 100 µM	–	3 nM	8.57 µM	43.7 µM	80.9 µM	–	4.83 µM	–	> 100 µM	> 100 µM	> 100 µM	> 100 µM	AC50 [5]: > 100 µM; IC50 [14]: 48 µM; depletion (cytotoxicity) in Gal media [15]: 60%
NC(=O)N1c2ccccc2C=Cc2ccccc21 [Carbamazepine]	> 600 µM	408 µM	> 600 µM	–	6300 nM	137 µM	> 190 µM	165 µM	–	13.1 µM	97 µM	363 µM	> 600 µM	> 600 µM	> 600 µM	IC50 [16]: 182 µM; IC50 ([8]; isolated mitochondria, partial inhibition): 353 µM
